Measured values: US20190375708A1 (VenatoRx Pharmaceuticals, Inc., priority 2018, published 2019)

Experiments:
[1] = tested on: HBV replication in HepAD38 cells; test: Anti-HBV replication assay in HepAD38 cells (QPCR of extracellular HBV DNA); assay type: cell-based, HBV (genotype D, serotype ayw); conditions: Hepatitis B virus, 168 h, 7 days incubation, extracellular HBV DNA by QPCR, read-out: Anti-HBV EC50
In short: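 Stably transfected HepG2-derived HepAD38 cells express HBV (genotype D, ayw) once tetracycline is withdrawn. Compounds act for 7 days, after which secreted HBV DNA is quantified by QPCR relative to DMSO-treated wells.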

[2] = In vitro cytotoxicity assay (MTT cell viability) in HepG2 cells; assay type: cell-based, human; conditions: human
In short: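 Parental HepG2 cells in EMEM + 10% FBS were exposed to compounds (8 half-log dilutions, 30 μM to 1.0 nM) for 7 days at 37 °C, 5% CO2. MTT was then added for 3-4 h, formazan dissolved in DMSO and absorbance read at 492 nm; CC50 came from 4-parameter fits against vehicle controls.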

Cc1c(C(=O)Nc2ccc(F)nc2)c(C)n(C)c1C(=O)C(=O)NC1CCc2nc(N)sc2C1 (stereo not shown) [Example 77, 5-(2-((2-amino-4,5,6,7-tetrahydrobenzo[d]thiazol-6-yl)amino)-2-oxoacetyl)-N-(6-fluoropyridin-3-yl)-1,2,4-trimethyl-1H-pyrrole-3-carboxamide]
EC50 [1]: 50 to 499 nM
CC50 at 7 days [2]: > 30000 nM

Cc1cc(NC(=O)c2c(Cl)c(C(=O)C(=O)N[C@H]3COC[C@@H]3O)n3c2CCCC3)ccc1F [Example 505, 2-chloro-N-(4-fluoro-3-methylphenyl)-3-(2-(((3S,4R)-4-hydroxytetrahydrofuran-3-yl)amino)-2-oxoacetyl)-5,6,7,8-tetrahydroindolizine-1-carboxamide]
EC50 [1]: 500 to 1000 nM
CC50 at 7 days [2]: > 30000 nM

Cc1cc(NC(=O)c2c(Cl)c(C(=O)C(=O)NC3(CO)CC(F)(F)C3)n3c2CCC3)cnc1F [Example 579, 6-chloro-5-(2-((3,3-difluoro-1-(hydroxymethyl)cyclobutyl)amino)-2-oxoacetyl)-N-(6-fluoro-5-methylpyridin-3-yl)-2,3-dihydro-1H-pyrrolizine-7-carboxamide]
EC50 [1]: 500 to 1000 nM
CC50 at 7 days [2]: > 30000 nM

Cc1cc(NC(=O)c2c(C)c(C(=O)C(=O)N[C@@H]3CCCN(S(C)(=O)=O)C3)n(C)c2C)ccc1F [Example 640]
EC50 [1]: < 50 nM
CC50 at 7 days [2]: 5000 to 30000 nM

Cc1cc(NC(=O)c2c(C)c(C(=O)C(=O)NC(C)(C)CO)n(C)c2C)ccc1F [Example 8, N-(4-fluoro-3-methylphenyl)-5-(2-((1-hydroxy-2-methylpropan-2-yl)amino)-2-oxoacetyl)-1,2,4-trimethyl-1H-pyrrole-3-carboxamide]
EC50 [1]: < 50 nM
CC50 at 7 days [2]: > 30000 nM

Cc1cnc(NC(=O)c2c(C)c(C(=O)C(=O)NC(C)(C)CO)n3c2CCCC3)s1 [Example 758, 3-(2-((1-hydroxy-2-methylpropan-2-yl)amino)-2-oxoacetyl)-2-methyl-N-(5-methylthiazol-2-yl)-5,6,7,8-tetrahydroindazoline-1-carboxamide]
EC50 [1]: 50 to 499 nM
CC50 at 7 days [2]: > 30000 nM

Cc1cc(NC(=O)c2c(C)c(C(=O)C(=O)NC3(C(F)(F)F)CCOCC3)n(C)c2C)cnc1F [Example 163, N-(6-fluoro-5-methylpyridin-3-yl)-1,2,4-trimethyl-5-(2-oxo-2-((4-(trifluoromethyl)tetrahydro-2H-pyran-4-yl)amino)acetyl)-1H-pyrrole-3-carboxamide]
EC50 [1]: > 1000 nM
CC50 at 7 days [2]: > 30000 nM

Cc1cc(NC(=O)c2c(C)c(C(=O)C(=O)NCCc3nnc[nH]3)n(C)c2C)ccc1F [Example 348, 5-(2-((2-(4H-1,2,4-triazol-3-yl)ethyl)amino)-2-oxoacetyl)-N-(4-fluoro-3-methylphenyl)-1,2,4-trimethyl-1H-pyrrole-3-carboxamide]
EC50 [1]: < 50 nM
CC50 at 7 days [2]: > 30000 nM

Cc1csc(NC(=O)C(=O)c2c(C)c(C(=O)Nc3ccc(F)c(Cl)c3)c(C)n2C)n1 [Example 316, N-(3-chloro-4-fluorophenyl)-1,2,4-trimethyl-5-(2-((4-methylthiazol-2-yl)amino)-2-oxoacetyl)-1H-pyrrole-3-carboxamide]
EC50 [1]: < 50 nM
CC50 at 7 days [2]: > 30000 nM

Cc1noc([C@@H](C)NC(=O)C(=O)c2c(C)c(C(=O)Nc3ccc(F)c(F)c3)c3n2CCCC3)n1 [Example 454, (R)-N-(3,4-difluorophenyl)-2-methyl-3-(2-((1-(3-methyl-1,2,4-oxadiazol-5-yl)ethyl)amino)-2-oxoacetyl) 5,6,7,8-tetrahydroindolizine-1-carboxamide]
EC50 [1]: 50 to 499 nM
CC50 at 7 days [2]: > 30000 nM

Cc1cc(NC(=O)c2c(C)c(C(=O)C(=O)NC3(c4cccs4)CCCCC3)n(C)c2C)ccc1F [Example 633, N-(4-fluoro-3-methylphenyl)-1,2,4-trimethyl-5-(2-oxo-2-((1-(thiophen-2-yl)cyclohexyl)amino)acetyl)-1H-pyrrole-3-carboxamide]
EC50 [1]: < 50 nM
CC50 at 7 days [2]: > 30000 nM

COC(=O)[C@H](NC(=O)C(=O)c1c(C)c(C(=O)Nc2ccc(F)c(C)c2)c(C)n1C)[C@@H](C)O [Example 46, methyl (2-(4-((4-fluoro-3-methylphenyl)carbamoyl)-1,3,5-trimethyl-1H-pyrrol-2-yl)-2-oxoacetyl)-D-allothreoninate]
EC50 [1]: < 50 nM
CC50 at 7 days [2]: > 30000 nM

CC[C@@H](CO)NC(=O)C(=O)c1c(C)c(C(=O)Nc2ccc(F)c(C)c2)c(C)n1CCF [Example 180, (S)-N-(4-fluoro-3-methylphenyl)-1(2-fluoroethyl)-5-(2-((1-hydroxybutan-2-yl)amino)-2-oxoacetyl)-2,4-dimethyl-1H-pyrrole-3-carboxamide]
EC50 [1]: < 50 nM
CC50 at 7 days [2]: 5000 to 30000 nM

CC(C)(CO)NC(=O)C(=O)c1cc(C(=O)Nc2ccc(F)c(F)c2)c2n1CCCC2 [Example 426, N-(3,4-difluorophenyl)-3-(2-((1-hydroxy-2-methylpropan-2-yl)amino)-2-oxoacetyl)-5,6,7,8-tetrahydroindolizine-1-carboxamide]
EC50 [1]: 50 to 499 nM
CC50 at 7 days [2]: > 30000 nM

Cc1nnc(C(C)NC(=O)C(=O)c2c(C)c(C(=O)Nc3ccc(F)c(C)c3)c(C)n2C)o1 (stereo not shown) [Example 181, N-(4-fluoro-3-methylphenyl)-1,2,4-trimethyl-5-(2-((1-(5-methyl-1,3,4-oxadiazol-2-yl)ethyl)amino)-2-oxoacetyl)-1H-pyrrole-3-carboxamide]
EC50 [1]: < 50 nM
CC50 at 7 days [2]: > 30000 nM

CNC(=O)[C@H](NC(=O)C(=O)c1c(C)c(C(=O)Nc2ccc(F)c(C)c2)c(C)n1C)[C@@H](C)O [Example 62, N-(4-fluoro-3-methylphenyl)-5-(2-(((2R,3R)-3-hydroxy-1-(methylmaino)-1-oxobutan-2-yl)amino)-2-oxoacetyl)-1,2,4-trimethyl-1H-pyrrole-3-carboxamide]
EC50 [1]: < 50 nM
CC50 at 7 days [2]: > 30000 nM

Cc1c(C(=O)Nc2cccc(Cl)c2)c(C)n(C)c1C(=O)C(=O)N[C@@H]1CCC[C@@H](O)C1 [Example 689, N-(3-chlorophenyl)-5-(2-(((1R,3R)-3-hydroxycyclohexyl)amino)-2-oxoacetyl)-1,2,4-trimethyl-1H-pyrrole-3-carboxamide]
EC50 [1]: < 50 nM
CC50 at 7 days [2]: > 30000 nM

Cc1cc(NC(=O)c2c(C)c(C(=O)C(=O)NC(C)(C)C(=O)O)n(C)c2C)ccc1F [Example 29, 2-(2-(4-((4-fluoro-3-methylphenyl)carbamoyl)-1,3,5-trimethyl-1H-pyrrol-2-yl)-2-oxoacetamido)-2-methylpropanoic acid]
EC50 [1]: 500 to 1000 nM
CC50 at 7 days [2]: > 30000 nM

Cc1cc(NC(=O)c2c(C)c(C(=O)C(=O)N[C@H]3COC[C@@H]3O)n3c2CCCC3)ccc1F [Example 439, N-(4-fluoro-3-methylphenyl)-3-(2-(((3S,4R)-4-hydroxytetrahydrofuran-3-yl)amino)-2-oxoacetyl)-2-methyl-5,6,7,8-tetrahydroindolizine-1-carboxamide]
EC50 [1]: 50 to 499 nM
CC50 at 7 days [2]: > 30000 nM

Cc1noc([C@H](C)NC(=O)C(=O)c2c(C)c(C(=O)Nc3ccc(F)c(C)c3)c(C)n2C)n1 [Example 215, (S)-N-(4-fluoro-3-methylphenyl)-1,2,4-trimethyl-5-(2-((1-(3-methyl-1,2,4-oxadiazol-5-yl)ethyl)amino)-2-oxoacetyl)-1H-pyrrole-3-carboxamide]
EC50 [1]: < 50 nM
CC50 at 7 days [2]: > 30000 nM

Cc1cc(NC(=O)c2c(Cl)c(C(=O)C(=O)NCC(C)(C)CO)n3c2CCCC3)cnc1F [Example 525, 2-chloro-N-(6-fluoro-5-methylpyridin-3-yl)-3-(2-((3-hydroxy-2,2-dimethylpropyl)amino)-2-oxoacetyl)-5,6,7,8-tetrahydroindolizine-1-carboxamide]
EC50 [1]: > 1000 nM
CC50 at 7 days [2]: > 30000 nM

CNC(=O)[C@@H](NC(=O)C(=O)c1c(C)c(C(=O)Nc2ccc(F)c(C)c2)c(C)n1C)C(C)C [Example 108, (S)-N-(4-fluoro-3-methylphenyl)-1,2,4-trimethyl-5-(2-((3-methyl-1-(methylamino)-1-oxobutan-2-yl)amino)-2-oxoacetyl)-1H-pyrrole-3-carboxamide]
EC50 [1]: < 50 nM
CC50 at 7 days [2]: 500 to 4990 nM

Cc1cc(NC(=O)c2c(C)c(C(=O)C(=O)N[C@@H](C(N)=O)C(C)(C)C)n(C)c2C)ccc1F [Example 40, (R)-5-(2-((1-amino-3,3-dimethyl-1-oxobutan-2-yl)amino)-2-oxoacetyl)-N-(4-fluoro-3-methylphenyl)-1,2,4-trimethyl-1H-pyrrole-3-carboxamide]
EC50 [1]: 500 to 1000 nM
CC50 at 7 days [2]: 500 to 4990 nM

Cc1c(C(=O)Nc2cc(F)c(F)c(F)c2)c(C)n(C)c1C(=O)C(=O)NC1CCC(F)(F)CC1 [Example 324, 5-(2-((4,4-difluorocyclohexyl)amino)-2-oxoacetyl)-1,2,4-trimethyl-N-(3,4,5-trifluorophenyl)-1H-pyrrole-3-carboxamide]
EC50 [1]: < 50 nM
CC50 at 7 days [2]: 5000 to 30000 nM

Cc1cc(NC(=O)c2c(C)c(C(=O)C(=O)N[C@H]3CCOC[C@@H]3O)n(C)c2C)ccc1F [Example 187, N-(4-fluoro-3-methylphenyl)-5-(2-(((3R,4S)-3-hydroxytetrahydro-2H-pyran-4-yl)amino)-2-oxoacetyl)-1,2,4-trimethyl-1H-pyrrole-3-carboxamide]
EC50 [1]: > 1000 nM
CC50 at 7 days [2]: > 30000 nM

Cc1c(C(=O)Nc2ccnc(F)c2)c(C)n(C)c1C(=O)C(=O)N[C@H]1CCC[C@@H]1O [Example 134, N-(2-fluoropyridin-4-yl)-5-(2-(((1S,2S)-2-hydroxycyclopentyl)amino)-2-oxoacetyl)-1,2,4-trimethyl-1H-pyrrole-3-carboxamide]
EC50 [1]: 50 to 499 nM
CC50 at 7 days [2]: > 30000 nM
